Measurements published in US20260355199A1, “COMPOSITIONS AND METHODS FOR TREATING OR PREVENTING NONALCOHOLIC STEATOHEPATITIS (NASH), ANOREXIA, DEPRESSION, ENDOMETRIOSIS, AND OTHER DISEASES OR DISORDERS” (priority 2022, published 2026).
“Also recorded” adds a separate entry of the source.

Key:
[1] = Energy expenditure and feeding of mice given Bobcat339; format: in vivo, mouse
TET3 = TET3 protein in mouse peritoneal macrophages; format: cell-based; details: 10 μM
Experimental: For cultured mouse peritoneal macrophages, cells were primed with 30 ng/ml of TGF-β1 (R&D Systems, 7666-MB0-005) for 48 h (to increase TET3 expression) before Bobcat339 treatment. Bobcat339 (or DMSO) was added at a final concentration of 10 μM, followed by RNA and protein extraction at time points indicated in the figure legends.
Cells were homogenized in situ using a pipette tip in 2×SDS-sample buffer with 10% β-mercaptoethanol at RT followed by heating at 100 °C for 5 min with occasional vortexing. The samples were loaded onto a 4-15% gradient SDS gel (Bio-rad, 456-8086) (10 μL/well) and transferred to nitrocellulose membranes, followed by Western blot analysis. The antibodies used were anti-TET3 (diluted at 1:1000, GeneTex, GTX121453 for human; diluted at 1:1000, Active Motif, 61395 for mouse), anti-TET2 (diluted at 1:1000, Proteintech, 21207-1-AP for human/mouse), anti-TGF-β1 (diluted at 1:1000, Abcam, ab215715 for human), anti-Lin28A (diluted at 1:1000, Cell Signaling, 3978S), and HRP-conjugated anti-GAPDH (dilution 1:5000; Proteintech, HRP-60004). The secondary antibody was HRP-linked Anti-rabbit IgG (dilution 1:10,000; Rockland, 611-1322).

Caspase-1 = Caspase-1 assay in human MDMs; format: cell-based; details: 10 μM, 48 h
Experimental: For TET3 expression restoration experiments, cells seeded in 24-well plates were infected with Ad-GFP or Ad-TET3 at 4000 gc/cell. Following 16 h of infection, vehicle or Bobcat339 were added at a final concentration of 10 μM. Protein and RNA were isolated 48 hours later and analyzed.
These were carried out using the Apoptosis/Caspase-1 assay kit (MyBioSource, MBS258046). Briefly, after wash with PBS, cells were incubated with 1×FAM-FLCA working solution in 300 μL growth media at 37 °C for 1 hour, followed by wash with 1× Cellular Wash Buffer three times. Hoechst 33342 was applied to counter-stain the cells for 15 min. Cells were then covered with mounting media and coverslips and scoped using a Keyence BZ-X700 fluorescence microscope.

[2] = test system: murine model of endometriosis; experiment: Surgically induced murine model of endometriosis; format: in vivo, mouse
Experimental: Female mice were randomly divided into three groups (sham, endometriosis treated with vehicle, and endometriosis treated with Bobcat) and subjected to surgery (week 1) to induce endometriosis or sham (FIG. 22A). The first once-a-week intraperitoneal (i.p.) injection of Bobcat339 (or vehicle) at a dose of 2.5 mg/kg was performed on week 3, followed by euthanasia and blood and tissue collection at week 9.
Given that Bobcat339 degrades TET3 inducing apoptosis (FIG. 26) and that myeloid-specific Tet3 ablation attenuates endometriosis (FIG. 28A through FIG. 28C), studies were performed to test whether Bobcat339 would elicit therapeutic effects on endometriosis. Thus, female mice were randomly divided into three groups (sham, endometriosis treated with vehicle, and endometriosis treated with Bobcat339) and subjected to surgery (week 0) to induce endometriosis or sham (FIG. 28D). The first once-a-week intraperitoneal (i.p.) injection of Bobcat339 (or vehicle) at a dose of 2.5 mg/kg body weight was performed on week 2, followed by euthanasia and blood and tissue collection on week 8. The dose of 2.5 mg/kg was chosen based on the previous studies showing no discernible liver toxicity in mice (Lv et al., 2023, Proc Natl Acad Sci USA, In press).
As Bobcat339 destabilized TET3, thus promoting macrophage apoptosis, additional studies tested whether Bobcat339 inhibits endometriosis (FIG. 25). Female mice were randomly divided into three groups (sham, endometriosis treated with vehicle, and endometriosis treated with Bobcat339) and subjected to surgery (week 0) to induce endometriosis or sham (FIG. 26). The first once-a-week intraperitoneal (i.p.) injection of Bobcat339 (or vehicle) at a dose of 3 mg/kg body weight was performed on week 2, followed by euthanasia and sample collection on week 8.
Bobcat339 powder was freshly dissolved in DMSO at a concentration of 50 mg/mL and filtered through a 0.22 micron filter. It was further diluted with 1×PBS to a final concentration of 0.5 mg/mL before injections. Mice were injected intraperitoneally with Bobcat339 at 2.5 mg/kg body weight.
Briefly, uterus horns were removed from wild-type female donor mice, opened longitudinally and cut into fragments of 3 mm. Two uterine segments were sutured to each right and left parietal peritoneum of recipient mice (6-7 weeks old) with absorbable suture. Sham surgeries were performed for sham group, using the same surgical procedure without the introduction of extraneous uterine tissue. The experimental model was allowed to develop for more than 4 weeks. Development of the model was confirmed by opening the abdominal cavity and measuring the size of endometriotic lesions both macroscopically and histologically.

Nc1nc(=O)n(-c2cccc(-c3ccccc3)c2)cc1Cl [Bobcat339, 4-Amino-1-[1,1′-biphenyl]-3-yl-5-chloro-2(1H)-pyrimidinone]
feeding ([1]; drinking water or i.p.): induced hyperphagia | liver toxicity ([1]; drinking water or i.p.): without showing evidence of liver toxicity | resting energy expenditure ([1]; drinking water or i.p.): decreases resting energy expenditure | appetite stimulation by route ([1]; oral and intraperitoneal): able to stimulate appetite via multiple routes of administration | TET3 protein (TET3): downregulated | apoptosis (Caspase-1) (Caspase-1): increased apoptosis; also recorded: a significant increase in pyroptotic cell death | TET3-expressing (CD163 double positive) macrophages in lesions ([2]; 2.5 mg/kg i.p. once a week): depletion of TET3/CD163-double positive cells; also recorded: depletion of TET3-expressing macrophages | body weight ([2]; 2.5 mg/kg i.p. once a week): no statistically significant differences were observed in body weight; also recorded: nor was there a significant difference in body weight | endometriosis lesion volume ([2]; 2.5 mg/kg i.p. once a week): significantly reduced the lesion volume; also recorded: a significant decrease in lesion volume; also recorded: a significantly decrease in lesion volume | food intake / appetite in endometriosis mice ([2]; 2.5 mg/kg i.p. once a week): the decrease was not observed; also recorded: improved appetite | IL-1b and IL-6 expression in CD163+ macrophage-enriched areas ([2]; 3 mg/kg i.p. once a week): a dramatic reduction in the expression of IL-1b and IL-6 | body weight ([2]; 3 mg/kg i.p. once a week): nor was there a significant difference in body weight | endometriosis lesion volume ([2]; 3 mg/kg i.p. once a week): significantly reduced the lesion volume | number of TET3-overexpressing CD163+ macrophages ([2]; 3 mg/kg i.p. once a week): a marked decrease in the number of TET3-overexpressing CD163^+ macrophages
